Several values for one entry are separate records, joined by “and”; a condition that tells them apart may be missing. Equal values may be shown once. Toxic doses and inconclusive results are not listed. Cut-off read from the data, not from the text of the source: active = T/C of 150% or more; inactive = T/C below 125%.
Tested on: L1210 leukemia ip in BDF1 mice, survival T/C
Assay: NCI In Vivo Anticancer Drug Screen. Data for tumor model L1210 Leukemia (intraperitoneal) in B6D2F1 (BDF1) mice
Settings: endpoint: mean survival time, higher = longer survival
How it was run: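 Transplantable tumor model; survival measured in treated vs vehicle control mice. Value = treated/control.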

[1] = dose: 100.0 mg/kg/injection, schedule: Q01DX009 (ip), vehicle: acetone
[2] = dose: 200.0 mg/kg/injection, schedule: Q01DX009 (ip), vehicle: acetone
[3] = dose: 100.0 mg/kg/injection, schedule: Q01DX001 (ip), vehicle: saline
[4] = dose: 200.0 mg/kg/injection, schedule: Q01DX001 (ip), vehicle: saline
[5] = dose: 400.0 mg/kg/injection, schedule: Q01DX001 (ip), vehicle: saline
[6] = dose: 100.0 mg/kg/injection, schedule: Q01DX009 (ip), vehicle: saline with Tween-80
[7] = dose: 200.0 mg/kg/injection, schedule: Q01DX009 (ip), vehicle: saline with Tween-80
[8] = dose: 400.0 mg/kg/injection, schedule: Q01DX009 (ip), vehicle: saline with Tween-80
[9] = dose: 100.0 mg/kg/injection, schedule: Q01DX009 (ip), vehicle: Klucel (hydroxypropylcellulose) (HPC)
[10] = dose: 200.0 mg/kg/injection, schedule: Q01DX009 (ip), vehicle: Klucel (hydroxypropylcellulose) (HPC)
[11] = dose: 400.0 mg/kg/injection, schedule: Q01DX009 (ip), vehicle: Klucel (hydroxypropylcellulose) (HPC)

Measured: T/C

C=CCc1cc(OC)c(OCc2ccccc2)cc1[N+](=O)[O-]
inactive: dose: 100.0 mg/kg/injection, schedule: Q04DX002 (ip), vehicle: saline with Tween-80 101 % of control | dose: 200.0 mg/kg/injection, schedule: Q04DX002 (ip), vehicle: saline with Tween-80 87 % of control | dose: 400.0 mg/kg/injection, schedule: Q04DX002 (ip), vehicle: saline with Tween-80 90 % of control

IC1=CC2CCC(C1)C2 (centres undefined)
inactive: [1] 109 % of control | [2] 97 % of control

C/C=C/CC1(C(C)C)C(=O)NC(=O)NC1=O
inactive: dose: 75.0 mg/kg/injection, schedule: Q01DX001 (ip), vehicle: other 103 % of control | dose: 75.0 mg/kg/injection, schedule: Q01DX001 (ip), vehicle: saline 101 % of control | dose: 150.0 mg/kg/injection, schedule: Q01DX001 (ip), vehicle: other 105 % of control | dose: 150.0 mg/kg/injection, schedule: Q01DX001 (ip), vehicle: saline 104 % of control

CCOC(=O)c1c(-c2ccc([N+](=O)[O-])cc2)c(/C=N\O)n(-c2ccccc2)c1C
inactive: dose: 100.0 mg/kg/injection, schedule: Q04DX002 (ip), vehicle: Klucel (hydroxypropylcellulose) (HPC) 87 % of control | dose: 200.0 mg/kg/injection, schedule: Q04DX002 (ip), vehicle: Klucel (hydroxypropylcellulose) (HPC) 94 % of control

O=C(CCc1ccc(O)cc1)c1c(O)cc(O)cc1O
inactive: [3] 96 % of control | [4] 94 % of control | [5] 92 % of control

Cc1c2ccccc2cc2cc[n+]3ccccc3c12
inactive: dose: 1.0 mg/kg/injection, schedule: Q01DX015 (ip), vehicle: carboxymethylcellulose (CMC) 102 % of control | dose: 2.0 mg/kg/injection, schedule: Q01DX015 (ip), vehicle: carboxymethylcellulose (CMC) 104 % of control | dose: 4.0 mg/kg/injection, schedule: Q01DX015 (ip), vehicle: carboxymethylcellulose (CMC) 98 % of control | dose: 5.0 mg/kg/injection, schedule: Q01DX001 (ip), vehicle: carboxymethylcellulose (CMC) 101 % of control | dose: 8.0 mg/kg/injection, schedule: Q01DX015 (ip), vehicle: carboxymethylcellulose (CMC) 102 % of control and 119 % of control | dose: 10.0 mg/kg/injection, schedule: Q01DX001 (ip), vehicle: carboxymethylcellulose (CMC) 101 % of control | dose: 16.0 mg/kg/injection, schedule: Q01DX015 (ip), vehicle: carboxymethylcellulose (CMC) 111 % of control | dose: 20.0 mg/kg/injection, schedule: Q01DX001 (ip), vehicle: carboxymethylcellulose (CMC) 110 % of control | dose: 20.0 mg/kg/injection, schedule: Q04DX003 (ip), vehicle: Klucel (hydroxypropylcellulose) (HPC) 110 % of control | dose: 40.0 mg/kg/injection, schedule: Q01DX001 (ip), vehicle: carboxymethylcellulose (CMC) 117 % of control | dose: 40.0 mg/kg/injection, schedule: Q04DX003 (ip), vehicle: Klucel (hydroxypropylcellulose) (HPC) 114 % of control

O=C1C2CCC(C2)C1C(O)(C(F)(F)Cl)C(F)(F)Cl (centres undefined)
inactive: dose: 50.0 mg/kg/injection, schedule: Q01DX009 (ip), vehicle: saline with Tween-80 92 % of control | [6] 90 % of control | [7] 90 % of control | [8] 92 % of control

CC1(C)OC2(C)OC1(C)OC2(C)C
inactive: dose: 75.0 mg/kg/injection, schedule: Q01DX009 (ip), vehicle: carboxymethylcellulose (CMC) 100 % of control | dose: 150.0 mg/kg/injection, schedule: Q01DX009 (ip), vehicle: carboxymethylcellulose (CMC) 103 % of control | dose: 300.0 mg/kg/injection, schedule: Q01DX009 (ip), vehicle: carboxymethylcellulose (CMC) 105 % of control

O=C(/C=C\c1ccccc1)c1ccc(Cl)cc1
inactive: [9] 97 % of control | [10] 97 % of control | [11] 100 % of control

CC(O)(CCl)C(=O)O (centres undefined)
inactive: dose: 100.0 mg/kg/injection, schedule: Q04DX003 (ip), vehicle: saline 96 % of control | dose: 200.0 mg/kg/injection, schedule: Q04DX003 (ip), vehicle: saline 98 % of control | dose: 400.0 mg/kg/injection, schedule: Q04DX003 (ip), vehicle: saline 96 % of control

COCCCNc1ccc(S(=O)(=O)c2ccc(N)cc2)cc1
inactive: [6] 103 % of control | [7] 95 % of control | [8] 97 % of control

C1=Cc2c3c(c4c(c2C1)C=CC4)CC=C3
inactive: dose: 25.0 mg/kg/injection, schedule: Q01DX001 (ip), vehicle: Klucel (hydroxypropylcellulose) (HPC) 93 % of control | dose: 50.0 mg/kg/injection, schedule: Q01DX001 (ip), vehicle: Klucel (hydroxypropylcellulose) (HPC) 97 % of control | dose: 100.0 mg/kg/injection, schedule: Q01DX001 (ip), vehicle: Klucel (hydroxypropylcellulose) (HPC) 101 % of control | [9] 95 % of control | dose: 200.0 mg/kg/injection, schedule: Q01DX001 (ip), vehicle: Klucel (hydroxypropylcellulose) (HPC) 92 % of control | [10] 88 % of control | dose: 400.0 mg/kg/injection, schedule: Q01DX001 (ip), vehicle: Klucel (hydroxypropylcellulose) (HPC) 93 % of control | [11] 95 % of control

Nc1ncnc2nc(N=Nc3ccc(C(=O)O)c(O)c3)[nH]c12
inactive: dose: 100.0 mg/kg/injection, schedule: Q04DX003 (ip), vehicle: Klucel (hydroxypropylcellulose) (HPC) 96 % of control | dose: 200.0 mg/kg/injection, schedule: Q04DX003 (ip), vehicle: Klucel (hydroxypropylcellulose) (HPC) 105 % of control | dose: 400.0 mg/kg/injection, schedule: Q04DX003 (ip), vehicle: Klucel (hydroxypropylcellulose) (HPC) 102 % of control

O=C1NC(=O)C2(N1)C1CC3CC(C1)CC2C3 (centres undefined)
inactive: dose: 100.0 mg/kg/injection, schedule: Q01DX009 (ip), vehicle: alcohol 94 % of control | dose: 100.0 mg/kg/injection, schedule: Q04DX003 (ip), vehicle: alcohol 96 % of control | dose: 200.0 mg/kg/injection, schedule: Q01DX009 (ip), vehicle: alcohol 98 % of control | dose: 200.0 mg/kg/injection, schedule: Q04DX003 (ip), vehicle: alcohol 102 % of control | dose: 400.0 mg/kg/injection, schedule: Q01DX009 (ip), vehicle: alcohol 87 % of control | dose: 400.0 mg/kg/injection, schedule: Q04DX003 (ip), vehicle: alcohol 96 % of control

Cc1cc2c(cc1C)C(=O)C(=O)N2
inactive: dose: 50.0 mg/kg/injection, schedule: Q01DX001 (ip), vehicle: saline 98 % of control | [3] 107 % of control | [4] 104 % of control | [5] 98 % of control

Cc1cnc(/C=N/NC(N)=S)cn1
inactive: dose: 100.0 mg/kg/injection, schedule: Q04DX002 (ip), vehicle: saline 99 % of control | dose: 200.0 mg/kg/injection, schedule: Q04DX002 (ip), vehicle: saline 96 % of control | dose: 400.0 mg/kg/injection, schedule: Q04DX002 (ip), vehicle: saline 108 % of control

COc1ccc(/C=N/n2c(=O)[nH]nc(C)c2=O)c(OC)c1OC
inactive: [1] 96 % of control | dose: 100.0 mg/kg/injection, schedule: Q04DX003 (ip), vehicle: saline with Tween-80 112 % of control | [2] 93 % of control | dose: 200.0 mg/kg/injection, schedule: Q04DX003 (ip), vehicle: saline with Tween-80 117 % of control | dose: 400.0 mg/kg/injection, schedule: Q01DX009 (ip), vehicle: acetone 102 % of control | dose: 400.0 mg/kg/injection, schedule: Q04DX003 (ip), vehicle: saline with Tween-80 109 % of control

CN(C)S(=O)(=O)c1ccc(CC(=O)c2ccccc2)cc1
inactive: dose: 100.0 mg/kg/injection, schedule: Q01DX001 (ip), vehicle: carboxymethylcellulose (CMC) 115 % of control | dose: 200.0 mg/kg/injection, schedule: Q01DX001 (ip), vehicle: carboxymethylcellulose (CMC) 98 % of control | dose: 400.0 mg/kg/injection, schedule: Q01DX001 (ip), vehicle: carboxymethylcellulose (CMC) 96 % of control

Source: PubChem BioAssay AID248 (DTP/NCI, 2004)
